Results reported in patent US20100298141A1, “SUBSTITUTED PYRIDINE N-OXIDE HERBICIDES” (E. I. DU PONT DE NEMOURS AND COMPANY, priority 2007, published 2010).

Experiments:
redroot pigweed = experiment: Test A pre-/postemergence greenhouse test; assay type: in vivo, Amaranthus retroflexus; conditions: for Plant response rating, Pigweed: 0 to 100 scale where 0 is no effect and 100 is complete control; for Pigweed plant response rating: 0 to 100 scale
Outline: (§1)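 Test compounds in non-phytotoxic solvent with surfactant were applied as a preemergence soil spray to seeded loam/sand pots and, concurrently, postemergence to plants at 2–10 cm, one- to two-leaf stage. About ten days in greenhouse, then injury visually rated against untreated controls.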

duck salad = experiment: Test C flooded paddy test; assay type: in vivo, Heteranthera limosa; conditions: Flood
Outline: (§2)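 Test compounds are applied straight into paddy water held 3 cm above the soil surface, with that flood maintained for the whole test. After 13 to 15 days in the greenhouse, each species is scored visually relative to controls.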

kochia = experiment: Test C pre-/postemergence test; assay type: in vivo, Kochia scoparia
Source text: (§3) Seeds of plant species selected from blackgrass (Alopecurus myosuroides), downy brome (Bromus tectorum), green foxtail (Setaria viridis), Italian ryegrass (Lolium multiflorum), wheat (Triticum aestivum), wild oat (Avena fatua), catchweed bedstraw (Galium aparine), Russian thistle (Salsola kali), […] (Cynodon dactylon), Surinam grass (Brachiaria decumbens), cocklebur (Xanthium strumarium), corn (Zea mays), crabgrass (Digitaria sanguinalis), woolly cupgrass (Eriochloa villosa), giant foxtail (Setaria faberii), Goosegrass (Eleusin indica), johnsongrass (Sorghum halepense), kochia (Kochia scoparia), lambsquarters (Chenopodium album), morningglory (Ipomoea coccinea), eastern black nightshade (Solanum ptycanthum), yellow nutsedge (Cyperus esculentus), pigweed (Amaranthus retroflexus), common ragweed (Ambrosia elation), soybean (Glycine max), common (oilseed) sunflower (Helianthus annuus), and velvetleaf (Abutilon theophrasti) were planted and treated preemergence with test chemicals formulated in a non-phytotoxic solvent mixture which included a surfactant. At the same time, plants selected from these crop and weed species and also winter barley (Hordeum vulgare), canarygrass (Phalaris minor), and chickweed (Stellaria media) were treated with postemergence applications of some of the test chemicals formulated in the same manner. Plants ranged in height from 2 to 18 cm (1- to 4-leaf stage) for postemergence treatments. […] At time of treatment, test pots were flooded to 3 cm above the soil surface, treated by application of test compounds directly to the paddy water, and then maintained at that water depth for the duration of the test. […] A dash (-) response means no test result.

bermudagrass = experiment: Test C pre-/postemergence test; assay type: in vivo, Cynodon dactylon
Source text: as §3

corn = experiment: Test A pre-/postemergence greenhouse test; assay type: in vivo, Zea mays; conditions: for Plant response rating, Corn: 0 to 100 scale where 0 is no effect and 100 is complete control; for Corn plant response rating: 0 to 100 scale
Outline: as §1

barnyardgrass = experiment: Test C flooded paddy test; assay type: in vivo, Echinochloa crus-galli; conditions: Flood
Outline: as §2

blackgrass = experiment: Test C pre-/postemergence test; assay type: in vivo, Alopecurus myosuroides
Source text: as §3

[1] = tested on: common (oilseed) sunflower; experiment: Test C pre-/postemergence test; assay type: in vivo, Helianthus annuus; conditions: for Plant response rating, Sunflower: 31 g ai/ha, scale 0 to 100 (0 no effect, 100 complete control)
Source text: as §3

crabgrass = experiment: Test C pre-/postemergence test; assay type: in vivo, Digitaria sanguinalis
Source text: as §3

velvetleaf = experiment: Test C pre-/postemergence test; assay type: in vivo, Abutilon theophrasti
Source text: as §3

pigweed = experiment: Test C pre-/postemergence test; assay type: in vivo, Amaranthus retroflexus
Source text: as §3

wild oat = experiment: Test C pre-/postemergence test; assay type: in vivo, Avena fatua
Source text: as §3

Surinam grass = experiment: Test C pre-/postemergence test; assay type: in vivo, Brachiaria decumbens
Source text: as §3

rice = experiment: Test C flooded paddy test; assay type: in vivo, Oryza sativa; conditions: Flood
Outline: as §2

wheat = experiment: Test C pre-/postemergence test; assay type: in vivo, Triticum aestivum
Source text: as §3

[2] = Postemergence, 500 g ai/ha, 0 is no effect, 100 is complete control
[3] = Preemergence, 125 g ai/ha, 0 no effect, 100 complete control
[4] = 62 g ai/ha, scale 0 to 100 (0 no effect, 100 complete control)
[5] = 250 g ai/ha, scale 0 to 100, 0 no effect, 100 complete control, 13 to 15 days
[6] = 62 g ai/ha, Preemergence, scale 0 to 100
[7] = 125 g ai/ha, preemergence, scale 0 (no effect) to 100 (complete control)
[8] = Postemergence, 62 g ai/ha, scale 0 to 100, 0 no effect, 100 complete control
[9] = Postemergence, 125 g ai/ha, scale 0 to 100, 0 no effect, 100 complete control
[10] = Postemergence, 250 g ai/ha, scale 0 to 100, 0 no effect, 100 complete control
[11] = Preemergence, 31 g ai/ha, scale 0 to 100 (0 no effect, 100 complete control)
[12] = preemergence, 250 g ai/ha, scale 0 (no effect) to 100 (complete control)
[13] = 62 g ai/ha, Preemergence, scale 0 to 100 (0 no effect, 100 complete control)

CCn1nc(C(F)(F)F)c(CS(=O)(=O)c2cc(C)cc[n+]2[O-])c1OCC(F)(F)F [Compound 64]
85: Plant response rating, Oat, Wild (wild oat; [10])
80: Pigweed plant response rating (redroot pigweed; [2]) | Sunflower plant response rating [1, 7] | Oat, Wild plant response rating (wild oat; [6])
50: Pigweed plant response rating (redroot pigweed; [3]) | Corn plant response rating (corn; [2]) | Plant response rating, Oat, Wild (wild oat; [9]) | Plant response rating, Oat, Wild (wild oat; [11]) | Plant response rating (0 to 100), Wheat (wheat; Postemergence, 62 g ai/ha)
45: Plant response rating, Velvetleaf (velvetleaf; [11])
20: Plant response rating, Ducksalad (duck salad; [4]) | Plant response rating, Barnyardgrass (barnyardgrass; [5]) | Plant response rating (0 to 100), Blackgrass (blackgrass; Postemergence, 31 g ai/ha) | Plant response rating, Crabgrass, Large (crabgrass; [10]) | Wheat plant response rating (wheat; [6])
70: Plant response rating, Pigweed (redroot pigweed; Postemergence, 125 g ai/ha)
90: Blackgrass plant response rating (blackgrass; [6]) | Plant response rating, Blackgrass (blackgrass; [11]) | Oat, Wild plant response rating (wild oat; [7])
95: Sunflower plant response rating [1, 12] | Pigweed plant response rating (pigweed; [6]) | Plant response rating, Pigweed (pigweed; [11]) | Plant response rating, Surinam Grass (Surinam grass; [11])
98: Plant response rating, Crabgrass, Large (crabgrass; [11]) | Oat, Wild plant response rating (wild oat; [12])
0: Plant response rating (0 to 100), Kochia (kochia; Postemergence, 31 g ai/ha) | Plant response rating, Kochia (kochia; [8]) | Plant response rating, Kochia (kochia; [9]) | Plant response rating, Kochia (kochia; [10]) | Plant response rating (0 to 100), Bermudagrass (bermudagrass; Postemergence, 31 g ai/ha) | Plant response rating, Bermudagrass (bermudagrass; [8]) | Plant response rating, Bermudagrass (bermudagrass; [9]) | Corn plant response rating (corn; [3]) | Plant response rating, Barnyardgrass (barnyardgrass; [4]) | Plant response rating, Sunflower ([1]; Preemergence) | Plant response rating (0 to 100), Crabgrass, Large (crabgrass; Postemergence, 31 g ai/ha) | Plant response rating, Crabgrass, Large (crabgrass; [8]) | Plant response rating, Crabgrass, Large (crabgrass; [9]) | Plant response rating (0 to 100), Velvetleaf (velvetleaf; Postemergence, 31 g ai/ha) | Plant response rating (0 to 100), Velvetleaf (velvetleaf; Postemergence, 62 g ai/ha) | Plant response rating, Velvetleaf (velvetleaf; [9]) | Plant response rating (0 to 100), Pigweed (pigweed; Postemergence, 31 g ai/ha) | Plant response rating (0 to 100), Pigweed (pigweed; Postemergence, 62 g ai/ha) | Plant response rating, Pigweed (pigweed; [9]) | Plant response rating (0 to 100), Oat, Wild (wild oat; Postemergence, 31 g ai/ha) | Plant response rating (0 to 100), Surinam Grass (Surinam grass; Postemergence, 31 g ai/ha) | Plant response rating (0 to 100), Surinam Grass (Surinam grass; Postemergence, 62 g ai/ha) | Plant response rating, Surinam Grass (Surinam grass; [9]) | Plant response rating, Rice (rice; [4]) | Plant response rating (0 to 100), Wheat (wheat; Postemergence, 31 g ai/ha) | Plant response rating, Wheat (wheat; [11])
30: Sunflower plant response rating [1, 6] | Plant response rating, Oat, Wild (wild oat; [8]) | Wheat plant response rating (wheat; [7])
40: Plant response rating, Bermudagrass (bermudagrass; [10]) | Plant response rating, Corn (corn; Postemergence, 125 g ai/ha) | Plant response rating, Velvetleaf (velvetleaf; [10]) | Plant response rating, Surinam Grass (Surinam grass; [10])
65: Plant response rating, Wheat (wheat; [9]) | Plant response rating, Wheat (wheat; [10])
100: Plant response rating, Pigweed (redroot pigweed; Preemergence, 500 g ai/ha) | Kochia plant response rating (kochia; [6]) | Kochia plant response rating (kochia; [7]) | Plant response rating, Kochia (kochia; [11]) | Kochia plant response rating (kochia; [12]) | Bermudagrass plant response rating (bermudagrass; [13]) | Bermudagrass plant response rating (bermudagrass; [7]) | Plant response rating, Bermudagrass (bermudagrass; [11]) | Bermudagrass plant response rating (bermudagrass; [12]) | Blackgrass plant response rating (blackgrass; [7]) | Blackgrass plant response rating (blackgrass; [12]) | Crabgrass, Large plant response rating (crabgrass; [6]) | Crabgrass, Large plant response rating (crabgrass; [7]) | Crabgrass, Large plant response rating (crabgrass; [12]) | Velvetleaf plant response rating (velvetleaf; [6]) | Velvetleaf plant response rating (velvetleaf; [7]) | Velvetleaf plant response rating (velvetleaf; [12]) | Pigweed plant response rating (pigweed; [7]) | Pigweed plant response rating (pigweed; [12]) | Surinam Grass plant response rating (Surinam grass; [6]) | Surinam Grass plant response rating (Surinam grass; [7]) | Surinam Grass plant response rating (Surinam grass; [12]) | Wheat plant response rating (wheat; [12])
5: Plant response rating, Pigweed (pigweed; [10])
60: Plant response rating, Corn (corn; Preemergence, 500 g ai/ha) | Plant response rating, Blackgrass (blackgrass; [8]) | Plant response rating, Blackgrass (blackgrass; [9]) | Plant response rating, Rice (rice; [5])
75: Plant response rating, Ducksalad (duck salad; [5])

CCn1nc(C(F)(F)F)c(CS(=O)(=O)c2cccc[n+]2[O-])c1OCC(F)(F)F [Compound 63]
60: Corn plant response rating (corn; [2]) | Sunflower plant response rating [1, 6] | Oat, Wild plant response rating (wild oat; [6]) | Wheat plant response rating (wheat; [7])
85: Sunflower plant response rating [1, 12] | Velvetleaf plant response rating (velvetleaf; [7]) | Oat, Wild plant response rating (wild oat; [7]) | Wheat plant response rating (wheat; [12])
0: Plant response rating, Ducksalad (duck salad; [4]) | Corn plant response rating (corn; [3]) | Plant response rating, Wheat (wheat; [11])
20: Wheat plant response rating (wheat; [6])
100: Plant response rating, Pigweed (redroot pigweed; Preemergence, 500 g ai/ha) | Kochia plant response rating (kochia; [6]) | Kochia plant response rating (kochia; [7]) | Plant response rating, Kochia (kochia; [11]) | Kochia plant response rating (kochia; [12]) | Bermudagrass plant response rating (bermudagrass; [13]) | Bermudagrass plant response rating (bermudagrass; [7]) | Plant response rating, Bermudagrass (bermudagrass; [11]) | Bermudagrass plant response rating (bermudagrass; [12]) | Blackgrass plant response rating (blackgrass; [6]) | Blackgrass plant response rating (blackgrass; [7]) | Blackgrass plant response rating (blackgrass; [12]) | Crabgrass, Large plant response rating (crabgrass; [6]) | Crabgrass, Large plant response rating (crabgrass; [7]) | Plant response rating, Crabgrass, Large (crabgrass; [11]) | Crabgrass, Large plant response rating (crabgrass; [12]) | Velvetleaf plant response rating (velvetleaf; [12]) | Pigweed plant response rating (pigweed; [6]) | Pigweed plant response rating (pigweed; [7]) | Pigweed plant response rating (pigweed; [12]) | Surinam Grass plant response rating (Surinam grass; [6]) | Surinam Grass plant response rating (Surinam grass; [7]) | Plant response rating, Surinam Grass (Surinam grass; [11]) | Surinam Grass plant response rating (Surinam grass; [12])
35: Plant response rating, Rice (rice; [5])
30: Plant response rating, Corn (corn; Postemergence, 125 g ai/ha) | Plant response rating, Rice (rice; [4])
10: Plant response rating, Sunflower ([1]; Preemergence)
75: Plant response rating, Ducksalad (duck salad; [5])
40: Plant response rating, Barnyardgrass (barnyardgrass; [4]) | Plant response rating, Barnyardgrass (barnyardgrass; [5])
50: Plant response rating, Pigweed (redroot pigweed; Postemergence, 125 g ai/ha) | Plant response rating, Corn (corn; Preemergence, 500 g ai/ha) | Plant response rating, Velvetleaf (velvetleaf; [11]) | Plant response rating, Pigweed (pigweed; [11]) | Plant response rating, Oat, Wild (wild oat; [11])
80: Pigweed plant response rating (redroot pigweed; [2]) | Sunflower plant response rating [1, 7] | Velvetleaf plant response rating (velvetleaf; [6])
95: Oat, Wild plant response rating (wild oat; [12])
70: Pigweed plant response rating (redroot pigweed; [3]) | Plant response rating, Blackgrass (blackgrass; [11])
